This note sets out measurements from patent publication US20240101570A1 (AMGEN INC., priority 2020, published 2024).

Where two headings read alike, the source gives them in different places.

One test concerns HCT116 MTAP null cells. The experiment in a line: HCT116 MTAP null cell proliferation / viability (CellTiter-Glo, 6 days). The conditions noted are these: HCT116 MTAP null cells, 6 days, CellTiter-Glo, read-out: HCT-116 MTAP null IC50. The test is classed as cell-based. The essentials: (§1)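 Viability read by CellTiter-Glo after 6-day compound exposure of MTAP-null and wild-type HCT116 cells grown in RPMI 1640 with 10% FBS. Dosing used 1:3 steps from 1 or 10 μM (8-9 points) or 1:2 steps from 10 or 50 μM (22 points); IC50 taken where fitted curve crosses 50% of control.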
On the technique in general: Cellular ATP, detected with luciferase, serves as a proxy for viable cell number.

A further test relates to HCT116 WT cells. The experiment in a line: HCT116 WT cell proliferation / viability (CellTiter-Glo, 6 days). It counts as cell-based. The conditions noted are these: HCT116 WT cells, 6 days, CellTiter-Glo, read-out: HCT-116 WT IC50. The essentials: as §1

In general, IC50 refers to the point on the concentration scale where inhibition reaches its midpoint. Consider `C[C@H](c1ccc(C(F)(F)F)nn1)N(C)C(=O)c1ccc2nc(N)c3cnn(C)c3c2c1` (single isomer, unassigned) [Example 855], for which the IC50 in the test with HCT116 MTAP null cells (HCT116-MTAP null, 144 h) amounted to 0.164 µM; in the test with HCT116 WT cells (Homo sapiens, HCT-116, 144 h), 28.9 µM.

Consider `C[C@@H]1OCc2c1c(N)nc1cnc(C(=O)N(Cc3ccc(OC(F)F)nn3)CC3CC3)cc21` [Example 425, (3S)-4-amino-N-(cyclopropylmethyl)-N-((6-(difluoromethoxy)-3-pyridazinyl)methyl)-3-methyl-1,3-dihydrofuro[3,4-c][1,7]naphthyridine-8-carboxamide], for which the 50% inhibitory concentration (IC50) with HCT116 MTAP null cells (HCT116-MTAP null, 144 h) is 2.71 µM; in the test on HCT116 WT cells (Homo sapiens, HCT-116, 144 h), greater than 50 µM.

In the case of `CC(c1ncc(F)cn1)N(CCOC(F)(F)F)C(=O)c1cc2c3c(c(N)nc2cc1F)COC3` (racemic) [Example 725, 4-amino-7-fluoro-N-((1R)-1-(5-fluoro-2-pyrimidinyl)ethyl)-N-(2-(trifluoromethoxy)ethyl)-1,3-dihydrofuro[3,4-c]quinoline-8-carboxamide and 4-amino-7-fluoro-N-((1S)-1-(5-fluoro-2-pyrimidinyl)ethyl)-N-(2-(trifluoromethoxy)ethyl)-1,3-dihydrofuro[3,4-c]quinoline-8-carboxamide], the IC50 in the test on HCT116 MTAP null cells (HCT116-MTAP null, 144 h) is 0.854 µM; in the test with HCT116 WT cells (Homo sapiens, HCT-116, 144 h) it was greater than 50 µM.

`CCN(Cc1ccc(C(F)(F)F)cn1)C(=O)c1cc2c3c(c(N)nc2cn1)COC3` [Example 361, 4-amino-N-ethyl-N-((5-(trifluoromethyl)-2-pyridinyl)methyl)-1,3-dihydrofuro[3,4-c][1,7]naphthyridine-8-carboxamide]: the IC50 in the test on HCT116 MTAP null cells (HCT116-MTAP null, 144 h) is 0.173 µM; in the test on HCT116 WT cells (Homo sapiens, HCT-116, 144 h) it was 7.75 µM.

On to `CC1OCc2c1c(N)nc1ccc(C(=O)N(C)Cc3ccc(C(F)(F)F)cn3)cc21` (stereo not drawn) [Example 929, 4-amino-N,3-dimethyl-N-((5-(trifluoromethyl)pyridin-2-yl)methyl)-1,3-dihydrofuro[3,4-c]quinoline-8-carboxamide], for which the concentration for half-maximal inhibition (IC50) in the test with HCT116 MTAP null cells (HCT116-MTAP null, 144 h) was 0.2 µM; with HCT116 WT cells (Homo sapiens, HCT-116, 144 h), greater than 1 µM.

As for `Cc1cc2nc(N)c3c(cnn3C)c2cc1C(=O)N(C)Cc1ccc(C(F)(F)F)cn1` [Example 520, 4-amino-N,3,7-trimethyl-N-((5-(trifluoromethyl)-2-pyridinyl)methyl)-3H-pyrazolo[3,4-c]quinoline-8-carboxamide], the IC50 with HCT116 MTAP null cells (HCT116-MTAP null, 144 h) was determined as 0.149 µM; in the test with HCT116 WT cells (Homo sapiens, HCT-116, 144 h), 9.06 µM.

`CCN(Cc1ccc(Br)nn1)C(=O)c1cc2c3c(c(N)nc2cn1)COC3` [Example 710, 4-amino-N-((6-bromo-3-pyridazinyl)methyl)-N-ethyl-1,3-dihydrofuro[3,4-c][1,7]naphthyridine-8-carboxamide]: the IC50 with HCT116 MTAP null cells (HCT116-MTAP null, 144 h) was 0.484 µM; in the test with HCT116 WT cells (Homo sapiens, HCT-116, 144 h), greater than 10 µM.

In the case of `CC(CF)N(Cc1ccc(C#N)cn1)C(=O)c1ccc2nc(N)c3c(c2c1)COC3` (racemic) [Example 473, 4-amino-N-((5-cyano-2-pyridinyl)methyl)-N-((2R)-1-fluoro-2-propanyl)-1,3-dihydrofuro[3,4-c]quinoline-8-carboxamide and 4-amino-N-((5-cyano-2-pyridinyl)methyl)-N-((2S)-1-fluoro-2-propanyl)-1,3-dihydrofuro[3,4-c]quinoline-8-carboxamide], the IC50 with HCT116 MTAP null cells (HCT116-MTAP null, 144 h) is 0.809 µM; with HCT116 WT cells (Homo sapiens, HCT-116, 144 h), greater than 10 µM.

`CN(Cc1ccc(C(F)(F)F)nn1)C(=O)c1cc2c(cc1C(F)(F)F)nc(N)c1cnn(C)c12` [Example 811, 4-amino-N,1-dimethyl-7-(trifluoromethyl)-N-((6-(trifluoromethyl)-3-pyridazinyl)methyl)-1H-pyrazolo[4,3-c]quinoline-8-carboxamide]: the half-inhibitory concentration (IC50) with HCT116 MTAP null cells (HCT116-MTAP null, 144 h) is 0.645 µM; in the test on HCT116 WT cells (Homo sapiens, HCT-116, 144 h) it was greater than 50 µM.

For `CN(Cc1ccc(C(F)F)cn1)C(=O)c1ccc2nc(N)c3cnn(C)c3c2c1` [Example 524, 4-amino-N-((5-(difluoromethyl)-2-pyridinyl)methyl)-N,1-dimethyl-1H-pyrazolo[4,3-c]quinoline-8-carboxamide], the IC50 with HCT116 MTAP null cells (HCT116-MTAP null, 144 h) is 0.183 µM; in the test with HCT116 WT cells (Homo sapiens, HCT-116, 144 h), 16.4 µM.

As to `CC[C@H](c1ccc(C(F)(F)F)cn1)N(CC)C(=O)c1cc2c3c(c(N)nc2cn1)COC3` [Example 761, 4-amino-N-ethyl-N-((1R)-1-(5-(trifluoromethyl)-2-pyridinyl)propyl)-1,3-dihydrofuro[3,4-c][1,7]naphthyridine-8-carboxamide], the IC50 came to 0.305 µM in the test on HCT116 MTAP null cells (HCT116-MTAP null, 144 h) and 13.6 µM in the test with HCT116 WT cells (Homo sapiens, HCT-116, 144 h).

For `CO[C@@H]1CCOC[C@H]1N(Cc1ccc(C#N)c(C)n1)C(=O)c1ccc2nc(N)c3c(c2c1)COC3` (single isomer, unassigned) [Example 588], the IC50 in the test on HCT116 MTAP null cells was found to be 0.079 µM; in the test with HCT116 WT cells, 1.95 µM.

Consider `C[C@H](c1ncc(C(F)(F)F)cc1F)N(C)C(=O)c1cc2c3c(c(N)nc2cc1F)COC3` (single isomer, unassigned) [Example 595], for which the IC50 came out at 0.01 µM in the test on HCT116 MTAP null cells (HCT116-MTAP null, 144 h) and 0.676 µM in the test with HCT116 WT cells (Homo sapiens, HCT-116, 144 h).

Take `C[C@H](c1ccc(S(F)(F)(F)(F)F)cc1)N(C)C(=O)c1cc2c(cn1)nc(N)c1c2cnn1C` (single isomer, unassigned) [Example 868]: the IC50 was 0.059 µM in the test with HCT116 MTAP null cells (HCT116-MTAP null, 144 h) and 3.84 µM with HCT116 WT cells (Homo sapiens, HCT-116, 144 h).

As for `C[C@H]1OCc2c1c(N)nc1ccc(C(=O)N(C)[C@@H](C)c3ccc(C(F)(F)F)cn3)cc21` (single isomer, unassigned) [Example 852], the half-inhibitory concentration (IC50) in the test on HCT116 MTAP null cells (HCT116-MTAP null, 144 h) is 3.16 µM; with HCT116 WT cells (Homo sapiens, HCT-116, 144 h), greater than 50 µM.

Take `CCN(C(=O)c1cc2c3c(c(N)nc2cn1)COC3)[C@H](C)c1ccc(C(F)F)cn1` [Example 773, 4-amino-N-((1R)-1-(5-(difluoromethyl)-2-pyridinyl)ethyl)-N-ethyl-1,3-dihydrofuro[3,4-c][1,7]naphthyridine-8-carboxamide]: the IC50 turned out to be 0.106 µM in the test with HCT116 MTAP null cells (HCT116-MTAP null, 144 h) and 2.63 µM in the test on HCT116 WT cells (Homo sapiens, HCT-116, 144 h).

Consider `CC(C)CN(Cc1ccc(C(F)(F)F)cn1)C(=O)c1ccc2nc(N)c3c(c2c1)CO[C@H]3CO` (single isomer, unassigned) [Example 579], for which the IC50 with HCT116 MTAP null cells (HCT116-MTAP null, 144 h) worked out at 0.348 µM; with HCT116 WT cells (Homo sapiens, HCT-116, 144 h), 5.62 µM.

For the compound `COC(=O)N1CC=C(c2ccc(CN(C)C(=O)c3ccc4nc(N)c5c(c4c3)COC5)nc2)CC1` [Example 430, methyl 6-((((4-amino-1,3-dihydrofuro[3,4-c]quinolin-8-yl)carbonyl)(methyl)amino)methyl)-3′,6′-dihydro[3,4′-bipyridine]-1′(2′H)-carboxylate], the half-inhibitory concentration (IC50) turned out to be 0.312 µM in the test on HCT116 MTAP null cells (HCT116-MTAP null, 144 h) and 12.8 µM in the test with HCT116 WT cells (Homo sapiens, HCT-116, 144 h).

Regarding `Nc1nc2ccc(C(=O)N(Cc3ccc(N4CCOCC4)nn3)CC3CC3)cc2c2c1COC2` [Example 452, 4-amino-N-(cyclopropylmethyl)-N-((6-(4-morpholinyl)-3-pyridazinyl)methyl)-1,3-dihydrofuro[3,4-c]quinoline-8-carboxamide], the IC50 in the test with HCT116 MTAP null cells (HCT116-MTAP null, 144 h) is 0.047 µM; with HCT116 WT cells (Homo sapiens, HCT-116, 144 h), 1.57 µM.

Take `C[C@@H]1OCc2c1c(N)nc1cnc(C(=O)N(C)Cc3ccc(C(F)(F)F)nn3)cc21` [Example 319, (3S)-4-amino-N,3-dimethyl-N-((6-(trifluoromethyl)-3-pyridazinyl)methyl)-1,3-dihydrofuro[3,4-c][1,7]naphthyridine-8-carboxamide]: the concentration for half-maximal inhibition (IC50) in the test with HCT116 MTAP null cells (HCT116-MTAP null, 144 h) is 27.7 µM; with HCT116 WT cells (Homo sapiens, HCT-116, 144 h) it was greater than 50 µM.

`CCN(Cc1ccc(C(F)(F)F)cn1)C(=O)c1cc2c(cc1Cl)nc(N)c1cnn(C)c12` [Example 793, 4-amino-7-chloro-N-ethyl-1-methyl-N-((5-(trifluoromethyl)-2-pyridinyl)methyl)-1H-pyrazolo[4,3-c]quinoline-8-carboxamide]: the IC50 in the test on HCT116 MTAP null cells (HCT116-MTAP null, 144 h) turned out to be 0.011 µM; in the test with HCT116 WT cells (Homo sapiens, HCT-116, 144 h) it was 0.296 µM.

On to `CC(C)N(Cc1ccc(C2CC2)nc1)C(=O)c1ccc2nc(N)c3c(c2c1)COC3` [Example 302, 4-amino-N-((6-cyclopropyl-3-pyridinyl)methyl)-N-(2-propanyl)-1,3-dihydrofuro[3,4-c]quinoline-8-carboxamide], for which the concentration for half-maximal inhibition (IC50) amounted to 0.9 µM in the test with HCT116 MTAP null cells (HCT116-MTAP null, 144 h) and 17.3 µM in the test with HCT116 WT cells (Homo sapiens, HCT-116, 144 h).

Take `Nc1nc2ccc(C(=O)N(Cc3ccc(C(F)(F)F)nn3)C3CC(F)(F)C3)cc2c2c1COC2` [Example 660, 4-amino-N-(3,3-difluorocyclobutyl)-N-((6-(trifluoromethyl)-3-pyridazinyl)methyl)-1,3-dihydrofuro[3,4-c]quinoline-8-carboxamide]: the half-inhibitory concentration (IC50) in the test with HCT116 MTAP null cells (HCT116-MTAP null, 144 h) is 0.354 µM; with HCT116 WT cells (Homo sapiens, HCT-116, 144 h), greater than 10 µM.

As to `CC(C)N(Cc1ccc(C(F)(F)F)nn1)C(=O)c1cc2c3c(c(N)nc2cn1)[C@@H](C)OC3` [Example 313, (3R)-4-amino-3-methyl-N-(2-propanyl)-N-((6-(trifluoromethyl)-3-pyridazinyl)methyl)-1,3-dihydrofuro [3,4-c][1,7]naphthyridine-8-carboxamide], the IC50 came to 0.2 µM in the test with HCT116 MTAP null cells (HCT116-MTAP null, 144 h) and 3.68 µM in the test with HCT116 WT cells (Homo sapiens, HCT-116, 144 h).

As to `COC[C@H](C1CC1)N(Cc1ccc(Br)nn1)C(=O)c1cnc2nc(N)c3c(c2c1)COC3` (single isomer, unassigned) [Example 651], the IC50 is 0.234 µM with HCT116 MTAP null cells (HCT116-MTAP null, 144 h) and 3.52 µM in the test with HCT116 WT cells (Homo sapiens, HCT-116, 144 h).

`Nc1nc2ccc(C(=O)N(Cc3ccc(C4CC4)cn3)C3CC3)cc2c2c1COC2` [Example 343, 4-amino-N-cyclopropyl-N-((5-cyclopropyl-2-pyridinyl)methyl)-1,3-dihydrofuro[3,4-c]quinoline-8-carboxamide]: the IC50 in the test on HCT116 MTAP null cells (HCT116-MTAP null, 144 h) was found to be 0.27 µM; with HCT116 WT cells (Homo sapiens, HCT-116, 144 h) it was 8.24 µM.

Consider `C[C@H]1OCc2c1c(N)nc1ccc(C(=O)N(C)Cc3ccc(C(F)(F)F)nn3)cc21` [Example 485, (3R)-4-amino-N,3-dimethyl-N-((6-(trifluoromethyl)-3-pyridazinyl)methyl)-1,3-dihydrofuro[3,4-c]quinoline-8-carboxamide], for which the IC50 worked out at 0.365 µM in the test on HCT116 MTAP null cells (HCT116-MTAP null, 144 h) and 32.1 µM in the test on HCT116 WT cells (Homo sapiens, HCT-116, 144 h).
